One assay has as its target KRas WT (Homo sapiens, UniProt P01116). Description: KRas binding assay (TR-FRET displacement), KRas WT. The settings on record: TR-FRET displacement.
The next assay addresses KRas G12S (Homo sapiens, UniProt P01116, G12S). The format is binding. The note with it: TR-FRET displacement, read-out: Binding to KRas (IC50 nM) G12S. (In general: In TR-FRET formats the signal depends on donor and acceptor labels being close together.)
The target of another assay is KRas Q61H (Homo sapiens, UniProt P01116, Q61H). Description: KRas binding assay (TR-FRET displacement), KRas Q61H. The settings on record: TR-FRET displacement.
KRas Q61H, sequence (P01116 1-169 isoform P01116-2 Q61H): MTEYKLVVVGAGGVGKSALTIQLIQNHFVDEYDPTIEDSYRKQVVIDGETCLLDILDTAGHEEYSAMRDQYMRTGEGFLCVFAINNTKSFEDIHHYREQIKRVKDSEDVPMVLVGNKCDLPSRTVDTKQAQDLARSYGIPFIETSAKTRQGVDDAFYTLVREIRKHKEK
The target in another assay is KRas G13D (Homo sapiens, UniProt P01116, G13D). The format is binding. The note with it: TR-FRET displacement, read-out: Binding to KRas (IC50 nM) G13D.
KRas G13D, sequence (P01116 1-169 isoform P01116-2 G13D): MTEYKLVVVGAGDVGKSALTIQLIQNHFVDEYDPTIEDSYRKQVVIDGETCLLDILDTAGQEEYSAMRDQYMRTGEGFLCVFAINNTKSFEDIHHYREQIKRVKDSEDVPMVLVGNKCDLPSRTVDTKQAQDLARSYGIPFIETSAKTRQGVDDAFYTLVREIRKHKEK
The next assay addresses KRas G12C (Homo sapiens, UniProt P01116, G12C). It is filed as binding. The note with it: TR-FRET displacement, read-out: Binding to KRas (IC50 nM) G12C.
The next assay addresses KRas G12D (Homo sapiens, UniProt P01116, G12D). Description: biochemical. The settings on record: Binding to KRas (IC50 nM) G12D, TR-FRET displacement, KRas G12D.
Another assay concerns the target KRas G12A (Homo sapiens, UniProt P01116, G12A). The format is binding. The note with it: TR-FRET displacement, read-out: Binding to KRas (IC50 nM) G12A.
In a further assay the target is KRas G12V (Homo sapiens, UniProt P01116, G12V). Description: biochemical. The settings on record: Binding to KRas (IC50 nM) G12V, TR-FRET displacement, KRas G12V.
KRas G12V, sequence (P01116 1-169 isoform P01116-2 G12V): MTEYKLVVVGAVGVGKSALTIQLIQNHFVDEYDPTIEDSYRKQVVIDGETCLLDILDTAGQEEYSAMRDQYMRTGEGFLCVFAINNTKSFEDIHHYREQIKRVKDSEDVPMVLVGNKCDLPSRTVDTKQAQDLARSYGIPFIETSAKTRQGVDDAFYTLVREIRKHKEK

The term IC50 denotes the concentration that inhibits the measured activity by half.

SMILES strings stand for the structures.

KRas G12D, sequence (P01116 1-169 isoform P01116-2 G12D): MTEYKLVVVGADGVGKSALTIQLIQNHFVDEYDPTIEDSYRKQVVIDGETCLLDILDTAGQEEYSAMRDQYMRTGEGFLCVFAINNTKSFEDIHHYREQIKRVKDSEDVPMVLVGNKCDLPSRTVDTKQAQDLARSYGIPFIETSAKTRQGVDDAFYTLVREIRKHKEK
KRas G12A, sequence (P01116 1-169 isoform P01116-2 G12A): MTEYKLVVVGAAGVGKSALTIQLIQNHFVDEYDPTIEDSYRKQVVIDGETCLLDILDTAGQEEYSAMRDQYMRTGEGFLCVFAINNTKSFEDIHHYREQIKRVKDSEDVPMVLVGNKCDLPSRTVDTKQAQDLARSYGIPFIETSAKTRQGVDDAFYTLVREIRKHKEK
KRas WT, sequence (P01116 1-169 isoform P01116-2): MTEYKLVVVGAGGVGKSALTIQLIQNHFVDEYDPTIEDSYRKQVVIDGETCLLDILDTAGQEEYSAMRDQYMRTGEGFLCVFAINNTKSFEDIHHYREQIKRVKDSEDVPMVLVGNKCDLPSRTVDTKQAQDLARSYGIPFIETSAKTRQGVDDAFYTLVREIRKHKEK
KRas G12S, sequence (P01116 1-169 isoform P01116-2 G12S): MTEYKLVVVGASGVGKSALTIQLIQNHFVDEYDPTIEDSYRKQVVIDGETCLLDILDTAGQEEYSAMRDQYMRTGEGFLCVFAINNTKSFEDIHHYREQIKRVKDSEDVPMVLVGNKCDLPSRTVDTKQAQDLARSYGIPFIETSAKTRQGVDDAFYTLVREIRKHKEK
KRas G12C, sequence (P01116 1-169 isoform P01116-2 G12C): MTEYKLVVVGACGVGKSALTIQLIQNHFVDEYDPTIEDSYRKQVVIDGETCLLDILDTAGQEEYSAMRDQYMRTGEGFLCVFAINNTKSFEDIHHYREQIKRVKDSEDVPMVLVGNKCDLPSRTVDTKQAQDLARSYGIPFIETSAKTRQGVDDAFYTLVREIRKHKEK

On to `CCc1cccc2cccc(N3CCc4c(nc(OCC5(CN(C)C)CC5)nc4NCc4c(C)nnn4CC)C3)c12` [Example 518, 2-((1-((dimethylamino)methyl)cyclopropyl)methoxy)-N-((1-ethyl-4-methyl-1H-1,2,3-triazol-5-yl)methyl)-7-(8-ethylnaphthalen-1-yl)-5,6,7,8-tetrahydropyrido[3,4-d]pyrimidin-4-amine], for which the IC50 was 221 nM on KRas WT; 161 nM at KRas G12S; 190 nM at KRas Q61H; 249 nM at KRas G13D; 139 nM at KRas G12C; 1930 nM at KRas G12D. Further, the IC50 turned out to be 175 nM on KRas G12A and 1790 nM at KRas G12V.
Take `CCc1cccc2cccc(N3CCc4c(nc(OCC5(CN(C)C)CC5)nc4N4Cc5nncn5C(C)C4)C3)c12` (stereo not shown) [Example 519, 1-(1-(((7-(8-ethylnaphthalen-1-yl)-4-(5-methyl-5,6-dihydro-[1,2,4]triazolo[4,3-a]pyrazin-7(8H)-yl)-5,6,7,8-tetrahydropyrido[3,4-d]pyrimidin-2-yl)oxy)methyl)cyclopropyl)-N,N-dimethylmethanamine]: the IC50 on KRas WT stood at 5230 nM; at KRas G12S it was 5480 nM; on KRas Q61H, 5920 nM; at KRas G13D, 8140 nM; on KRas G12C, 2850 nM; on KRas G12D, 2000 nM. For the same compound, the results for the IC50 at KRas G12A and on KRas G12V were 5580 nM and 1560 nM, respectively.
On to `CCc1cccc2cccc(N3CCc4c(nc(OCC5(CN(C)C)CC5)nc4NCc4nc(C(O)C5CC5)n[nH]4)C3)c12` (stereo not shown) [Example 520, cyclopropyl(5-(((2-((1-((dimethylamino)methyl)cyclopropyl)methoxy)-7-(8-ethylnaphthalen-1-yl)-5,6,7,8-tetrahydropyrido[3,4-d]pyrimidin-4-yl)amino)methyl)-1H-1,2,4-triazol-3-yl)methanol], for which the IC50 at KRas WT stood at 4610 nM; on KRas G12S it was 2900 nM; at KRas Q61H it was 5940 nM; on KRas G13D it was 5070 nM; on KRas G12C, 2290 nM; at KRas G12D, 2460 nM. In addition, the IC50 at KRas G12A was found to be 4150 nM; on KRas G12V it was 3990 nM.
As for `CCc1cccc2cccc(N3CCc4c(nc(OCC5(CN(C)C)CC5)nc4N4CCCC(Cn5cc(C(=O)NC)nn5)C4)C3)c12` (stereo not shown) [Example 528, 1-((1-(2-((1-((dimethylamino)methyl)cyclopropyl)methoxy)-7-(8-ethylnaphthalen-1-yl)-5,6,7,8-tetrahydropyrido[3,4-d]pyrimidin-4-yl)piperidin-3-yl)methyl)-N-methyl-1H-1,2,3-triazole-4-carboxamide], the IC50 was found to be 8290 nM on KRas WT; 11700 nM at KRas G12S; 7520 nM on KRas Q61H; 7930 nM at KRas G13D; 13500 nM at KRas G12C; 6290 nM at KRas G12D. Besides, the IC50 on KRas G12A is 10500 nM; at KRas G12V, 13600 nM.
In the case of `CCc1cccc2cccc(N3CCc4c(nc(OCC5(CN(C)C)CC5)nc4N(C)Cc4nnc5n4CCNC5=O)C3)c12` [Example 529, 3-(((2-((1-((dimethylamino)methyl)cyclopropyl)methoxy)-7-(8-ethylnaphthalen-1-yl)-5,6,7,8-tetrahydropyrido[3,4-d]pyrimidin-4-yl)(methyl)amino)methyl)-6,7-dihydro-[1,2,4]triazolo[4,3-a]pyrazin-8(5H)-one], the IC50 on KRas WT was 2000 nM; at KRas G12S, 1060 nM; on KRas Q61H, 1410 nM; on KRas G13D it was 2110 nM; on KRas G12C it was 1200 nM; on KRas G12D, 6570 nM. Besides, the IC50 on KRas G12A amounted to 1380 nM; at KRas G12V, 3000 nM.

The values above are taken from US20250368649A1, “TETRAHYDROPYRIDOPYRIMIDINE PAN-KRAS INHIBITORS” (Mirati Therapeutics, Inc., priority 2022, published 2025).
